Data reported in patent US12668600B2 (Kumquat Biosciences Inc., priority 2023, dated 2026).

Key:
Assay type in all cases: biochemical
KRAS G12S = target: T1, KRAS G12S (Homo sapiens, UniProt P01116, G12S); assay: HTRF KRAS-SOS1 interaction assay, KRAS G12S; details: binned ≤2 μM / >2 μM, read-out: Inhibition of KRAS G12S (IC50)
T1 construct: made in house; host or cells: E. coli, e.g. BL21 (DE3)
From the text: (§1) This assay can be also used to assess a selective inhibition or reduction of signaling output of a mutant Ras protein relative to a wildtype, or relative to a different mutant Ras protein. For example, the equilibrium interaction of wildtype KRAS or K-Ras mutant (e.g., wildtype or a mutant thereof) with SOS1 (e.g., hSOS1) can be assessed as a proxy or an indication for the ability of a subject compound to bind and inhibit Ras protein. The HTRF assay detects from (i) a fluorescence resonance energy transfer (FRET) donor (e.g., antiGST-Europium) that is bound to GST-tagged K-Ras mutant to (ii) a FRET acceptor (e.g., anti-6His-XL665) bound to a His-tagged hSOS1.
(§2) The assay buffer can contain ˜5 mM HEPES pH 7.4, ˜150 mM NaCl, ˜1 mM DTT, 0.05% BSA and 0.0025% (v/v) Igepal. A Ras working solution is prepared in an assay buffer containing typically a suitable amount of the protein construct (e.g., GST-tagged K-Ras mutant) and the FRET donor (e.g., antiGST-Eu (K) from Cisbio, France). A SOS1 working solution is prepared in an assay buffer containing suitable amount of the protein construct (e.g., His-hSOS1) and the FRET acceptor (e.g., anti-6His-XL665 from Cisbio, France). A suitable amount of the protein construct will depend on the range of activity or range of IC50 values being detected or under investigation. For detecting an IC50 within a range of 500 nM, the protein constructs of the same range of molarity can be utilized.
(§3) A fixed volume of DMSO with or without test compound is transferred into a 384-well plate. Ras working solution is added to all wells of the test plate. SOS1 working solution is added to all wells except for those that are subsequently filled with inhibitor control solution. Upon incubation for about 10 minutes or longer, the fluorescence is measured with a M1000Pro plate reader (Tecan) using HTRF detection (excitation 337 nm, emission 1:620 nm, emission 2:665 nm). Compounds are tested in duplicate at different concentrations (for example, 10 μM, 2.5 μM, 0.63 μM, 0.16 μM, 0.04 μM, 0.01 μM test compound). The ratiometric data (i.e., emission 2 divided by emission 1) is used to calculate IC50 values against Ras using GraphPad Prism (GraphPad software). Signaling output measured in terms of IC50 values can be obtained and a ratio of IC50 against one mutant relative to another mutant can be calculated.

KRAS WT = target: T2, KRAS WT (Homo sapiens, UniProt P01116); assay: HTRF KRAS-SOS1 interaction assay, wildtype KRAS; details: binned ≤2 μM / >2 μM, read-out: Inhibition of KRAS WT (IC50)
T2 construct: made in house; host or cells: E. coli, e.g. BL21 (DE3)
T2 sequence (P01116 1-188 isoform P01116-2): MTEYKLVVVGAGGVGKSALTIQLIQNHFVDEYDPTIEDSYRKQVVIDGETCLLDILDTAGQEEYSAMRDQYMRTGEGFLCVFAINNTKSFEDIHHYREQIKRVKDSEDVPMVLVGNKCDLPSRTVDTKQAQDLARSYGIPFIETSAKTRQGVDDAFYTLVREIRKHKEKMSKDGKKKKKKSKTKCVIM
From the text: as §1, §2, §3

KRAS G12V = target: T3, KRAS G12V (Homo sapiens, UniProt P01116, G12V); assay: HTRF KRAS-SOS1 interaction assay, KRAS G12V; details: binned ≤2 μM / >2 μM, read-out: Inhibition of KRAS G12V (IC50)
T3 construct: made in house; host or cells: E. coli, e.g. BL21 (DE3)
T3 sequence (P01116 1-188 isoform P01116-2 G12V): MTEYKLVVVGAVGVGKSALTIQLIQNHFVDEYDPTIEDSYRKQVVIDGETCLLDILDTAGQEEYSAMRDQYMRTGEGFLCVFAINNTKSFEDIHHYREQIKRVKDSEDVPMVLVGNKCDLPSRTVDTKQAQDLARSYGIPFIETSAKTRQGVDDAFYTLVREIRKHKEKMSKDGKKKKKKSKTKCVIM
From the text: as §1, §2, §3

KRAS G12D = target: T4, KRAS G12D (Homo sapiens, UniProt P01116, G12D); assay: HTRF KRAS-SOS1 interaction assay, KRAS G12D; details: binned ≤2 μM / >2 μM, read-out: Inhibition of KRAS G12D (IC50)
T4 construct: made in house; host or cells: E. coli, e.g. BL21 (DE3)
T4 sequence (P01116 1-188 isoform P01116-2 G12D): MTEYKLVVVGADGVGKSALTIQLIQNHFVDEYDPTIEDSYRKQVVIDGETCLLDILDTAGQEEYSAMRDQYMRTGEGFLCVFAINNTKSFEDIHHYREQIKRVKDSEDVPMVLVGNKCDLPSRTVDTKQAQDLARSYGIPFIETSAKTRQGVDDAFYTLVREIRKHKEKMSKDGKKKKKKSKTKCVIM
In short: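 Read-out: HTRF ratio 665/620 nm after ≥10 min incubation of compound with GST-KRAS/anti-GST-Eu and His-hSOS1/anti-6His-XL665. Duplicate dose series, 10 μM down to 0.01 μM. Buffer HEPES pH 7.4, NaCl, DTT, BSA, Igepal.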

Measured: IC50

T1 sequence (P01116 1-188 isoform P01116-2 G12S): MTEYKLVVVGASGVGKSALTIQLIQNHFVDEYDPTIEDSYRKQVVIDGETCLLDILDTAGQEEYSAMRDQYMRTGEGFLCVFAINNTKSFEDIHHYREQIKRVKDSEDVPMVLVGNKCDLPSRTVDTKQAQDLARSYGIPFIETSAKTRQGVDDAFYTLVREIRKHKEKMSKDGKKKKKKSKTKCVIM

C[C@H](c1cccnc1N)N1CCOc2c(C(F)(F)F)c(-c3ccc(F)c4sc(N)c(C#N)c34)c(F)c3nc(OCC4(CN5CCC6(CC5)CC6(F)F)CC4)nc1c23 (atropisomer, axis not shown) [Compound 613, 2-amino-4-((S)-4-((R)-1-(2-aminopyridin-3-yl)ethyl)-2-((1-((1,1-difluoro-6-azaspiro[2.5]octan-6-yl)methyl)cyclopropyl)methoxy)-10-fluoro-8-(trifluoromethyl)-5,6-dihydro-4H-[1,4]oxazepino[5,6,7-de]quinazolin-9-yl)-7-fluorobenzo[b]thiophene-3-carbonitrile]
≤ 2000 nM: all assays above

C[C@H](c1cccnc1N)N1CCOc2c(Cl)c(-c3ccc(F)c4sc(N)c(C#N)c34)c(F)c3nc(OC[C@@]45CCCN4CC(=C(F)F)C5)nc1c23 (atropisomer, axis not shown) [Compound 636, 2-amino-4-((R)-4-((R)-1-(2-aminopyridin-3-yl)ethyl)-8-chloro-2-(((S)-2-(difluoromethylene)tetrahydro-1H-pyrrolizin-7a (5H)-yl)methoxy)-10-fluoro-5,6-dihydro-4H-[1,4]oxazepino[5,6,7-de]quinazolin-9-yl)-7-fluorobenzo[b]thiophene-3-carbonitrile]
≤ 2000 nM: all assays above

C[C@H](c1cccnc1N)N1CCOc2c(Cl)c(-c3ccc(F)c4sc(N)c(C#N)c34)c(F)c3nc(OCC4(CN(C)C)CC4)nc1c23 (single isomer, unassigned) [Compound 638]
≤ 2000 nM: KRAS G12S | KRAS WT | KRAS G12V

N#Cc1c(N)sc2c(F)ccc(-c3c(C(F)(F)F)c4c5c(nc(OC[C@@]67CCCN6C[C@H](F)C7)nc5c3F)N([C@H](CC3CCOCC3)c3cccnc3N)CCO4)c12 (single isomer, unassigned) [Compound 642]
≤ 2000 nM: KRAS G12S | KRAS WT | KRAS G12V

CC(c1cncnc1N)N1CCOc2c(Cl)c(-c3ccc(F)c4sc(N)c(C#N)c34)c(F)c3nc(OC[C@@]45CCCN4C[C@H](F)C5)nc1c23 (single isomer, unassigned) [Compound 646]
≤ 2000 nM: KRAS G12S | KRAS WT | KRAS G12V

N#Cc1c(N)sc2c(F)ccc(-c3c(Cl)c4c5c(nc(OC[C@@]67CCCN6C[C@H](F)C7)nc5c3F)N(C(C=C(F)F)c3cccnc3N)CCO4)c12 (single isomer, unassigned) [Compound 655]
≤ 2000 nM: KRAS G12S | KRAS WT | KRAS G12V

CC(c1cccnc1N)N1CCOc2c(Cl)c(-c3ccc(F)c4sc(N)c(C#N)c34)c(F)c3nc(OC[C@@]45CCCN4C[C@H](F)C5)nc1c23 (single isomer, unassigned) [Compound 656]
≤ 2000 nM: KRAS G12S | KRAS WT | KRAS G12V

C[C@H](c1cccnc1N)N1CCOc2c(Cl)c(-c3cccc4sc(N)c(C#N)c34)c(F)c3nc(OC[C@@]45CCCN4CC(=C(F)F)C5)nc1c23 (single isomer, unassigned) [Compound 660]
≤ 2000 nM: KRAS G12S | KRAS WT | KRAS G12V

C[C@H](c1cccnc1N)N1CCOc2c(C(F)(F)F)c(-c3ccc(F)c4sc(N)c(C#N)c34)c(F)c3nc(OC[C@@]45CCCN4CC(C#N)C5)nc1c23 (single isomer, unassigned) [Compound 663]
≤ 2000 nM: KRAS G12S | KRAS WT | KRAS G12V

C#C[C@H]1COc2c(Cl)c(-c3ccc(F)c4sc(N)c(C#N)c34)c(F)c3nc(OC[C@@]45CCCN4C[C@H](F)C5)nc(c23)N1C(C)c1cccnc1N (single isomer, unassigned) [Compound 664]
≤ 2000 nM: KRAS G12S | KRAS WT | KRAS G12V

C[C@H](c1cccnc1N)N1CCOc2c(Cl)c(-c3cccc4sc(N)c(C#N)c34)c(F)c3nc(OC[C@@]45CCCN4C[C@H](F)C5)nc1c23 (single isomer, unassigned) [Compound 668]
≤ 2000 nM: KRAS G12S | KRAS WT | KRAS G12V

CN(C)CC[C@H](c1cccnc1N)N1CCOc2c(C(F)(F)F)c(-c3ccc(F)c4sc(N)c(C#N)c34)c(F)c3nc(OC[C@@]45CCCN4C[C@H](F)C5)nc1c23 (single isomer, unassigned) [Compound 669]
≤ 2000 nM: KRAS G12S | KRAS WT | KRAS G12V

CP(C)(=O)CC[C@H](c1cccnc1N)N1CCOc2c(C(F)(F)F)c(-c3ccc(F)c4sc(N)c(C#N)c34)c(F)c3nc(OC[C@@]45CCCN4C[C@H](F)C5)nc1c23 (single isomer, unassigned) [Compound 671]
≤ 2000 nM: KRAS G12S | KRAS WT | KRAS G12V

C[C@H](c1cccnc1N)N1CCOc2c(Cl)c(-c3ccc(F)c4sc(N)c(C#N)c34)c(F)c3nc(OCC45CCCN4C[C@H](OCCCP(C)(C)=O)C5)nc1c23 (single isomer, unassigned) [Compound 677]
≤ 2000 nM: KRAS G12S | KRAS WT | KRAS G12V

C[C@H](c1cccnc1N)N1CCOc2c(C(F)(F)F)c(-c3cccc4sc(N)c(C#N)c34)c(F)c3nc(OC[C@@]45CCCN4C[C@H](F)C5)nc1c23 (single isomer, unassigned) [Compound 678]
≤ 2000 nM: KRAS G12S | KRAS WT | KRAS G12V

N#Cc1c(N)sc2c(F)ccc(-c3c(C(F)(F)F)c4c5c(nc(OC[C@@]67CCCN6C[C@H](F)C7)nc5c3F)N([C@H](CCN3CCOCC3)c3cccnc3N)CCO4)c12 (single isomer, unassigned) [Compound 685]
≤ 2000 nM: KRAS G12S | KRAS WT | KRAS G12V

N#Cc1c(N)sc2c(F)ccc(-c3c(C(F)(F)F)c4c5c(nc(OC[C@@]67CCCN6C[C@H](F)C7)nc5c3F)N([C@H](CC3CC(F)(F)C3)c3cccnc3N)CCO4)c12 (single isomer, unassigned) [Compound 686]
≤ 2000 nM: KRAS G12S | KRAS WT | KRAS G12V

C[C@H]1CN([C@@H](c2cccnc2N)C(F)F)c2nc(OC[C@@]34CCCN3C[C@H](F)C4)nc3c(F)c(-c4ccc(F)c5sc(N)c(C#N)c45)c(C(F)(F)F)c(c23)O1 (single isomer, unassigned) [Compound 879]
≤ 2000 nM: KRAS G12S | KRAS WT | KRAS G12V
